According to patent US11365192B2, “Pyridine compound substituted with azole” (TAISHO PHARMACEUTICAL CO., LTD., priority 2017, dated 2022):

Legend:
human CYP4F2 = human CYP4F2 (Homo sapiens (Human), UniProt P78329); test: Inhibition test against 20-HETE producing enzyme CYP4F2 (luciferine derivative, luminescence); assay type: biochemical; settings: E. coli membrane fraction expressing human CYP4F2, 2.5 μM luciferine derivative, room temperature 60 minutes
Experimental: (§1) (1) Inhibition Test for Each Compound of the Present Invention Against 20-HETE Producing Enzymes (CYP4F2 and CYP4A11)
(§2) In the CYP4F2 inhibition test, the reaction solution containing each compound [final concentration of 50 mM, KPO4 (pH 7.4), 2.5 μM luciferine derivative, and 1 mM NADPH] was added to an Escherichia coli membrane fraction (100 μg/mL protein) in which human CYP4F2 had been expressed. In the CYP4A11 inhibition test, the reaction solution containing each compound [final concentration of 100 mM, Tris-HCl (pH 7.5), 60 μM luciferine derivative, 1.3 mM NADP^+, 3.3 mM Glucose 6-Phosphate, 3.3 mM MgCl2, and 0.4 U/mL Glucose 6-Phosphate dehydrogenase] was added to an Escherichia coli membrane fraction (100 μg/mL protein) in which human CYP4A11 had been expressed. Following this, the membrane fraction was left to stand at room temperature for 60 minutes to perform an enzymatic reaction. After the reaction, a luciferine detection reagent was added, and the luminescence value was measured using a plate reader. By using that value, the percent inhibition of 20-HETE producing enzyme (%) was calculated according to the equation described below, and the 50% inhibitory concentration (IC50 value) for each compound was calculated. Percent inhibition of 20-HETE producing enzyme (%)=[1−(A−B)/(C−B)]*100
(§3) A: Luminescence value with addition of compound
(§4) B: Luminescence value without addition of compound and enzyme

human CYP4A11 = human CYP4A11 (Homo sapiens (Human), UniProt Q02928); test: Inhibition test against 20-HETE producing enzyme CYP4A11 (luciferine derivative, luminescence); assay type: biochemical; settings: E. coli membrane fraction expressing human CYP4A11, 60 μM luciferine derivative, room temperature 60 minutes
human CYP4A11, sequence (Q02928 5-519): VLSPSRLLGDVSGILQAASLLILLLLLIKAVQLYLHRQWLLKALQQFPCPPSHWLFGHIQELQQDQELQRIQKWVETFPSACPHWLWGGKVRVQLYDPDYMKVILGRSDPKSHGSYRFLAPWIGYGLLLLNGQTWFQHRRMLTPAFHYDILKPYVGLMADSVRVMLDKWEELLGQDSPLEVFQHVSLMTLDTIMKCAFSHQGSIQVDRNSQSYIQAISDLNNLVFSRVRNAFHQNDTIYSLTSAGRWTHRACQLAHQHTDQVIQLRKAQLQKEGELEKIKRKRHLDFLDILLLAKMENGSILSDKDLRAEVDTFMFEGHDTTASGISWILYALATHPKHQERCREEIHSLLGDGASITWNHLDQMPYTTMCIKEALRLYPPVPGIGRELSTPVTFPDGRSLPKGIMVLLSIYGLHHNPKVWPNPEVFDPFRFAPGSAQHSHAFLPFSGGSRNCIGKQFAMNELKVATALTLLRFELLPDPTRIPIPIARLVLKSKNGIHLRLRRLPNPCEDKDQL
Experimental: as §1, §2, §3, §4

human CYP4F2, sequence (P78329 5-520): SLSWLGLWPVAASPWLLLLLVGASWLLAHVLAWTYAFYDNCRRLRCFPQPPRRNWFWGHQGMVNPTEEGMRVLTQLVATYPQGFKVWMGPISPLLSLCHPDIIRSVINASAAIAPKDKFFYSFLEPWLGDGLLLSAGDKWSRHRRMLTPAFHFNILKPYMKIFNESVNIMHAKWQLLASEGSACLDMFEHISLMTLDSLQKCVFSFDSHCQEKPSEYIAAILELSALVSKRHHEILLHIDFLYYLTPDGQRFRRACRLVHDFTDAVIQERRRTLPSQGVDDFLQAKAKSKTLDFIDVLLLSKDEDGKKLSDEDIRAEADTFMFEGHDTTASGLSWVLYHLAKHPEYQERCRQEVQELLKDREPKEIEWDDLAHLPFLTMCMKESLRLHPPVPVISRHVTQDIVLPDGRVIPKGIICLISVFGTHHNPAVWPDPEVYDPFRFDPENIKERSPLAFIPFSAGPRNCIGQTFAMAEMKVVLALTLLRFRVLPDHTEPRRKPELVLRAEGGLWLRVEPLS

Row | IC50 (human CYP4F2) | IC50 (human CYP4A11) | SMILES
1 | 6300 nM | 130 nM | O=C(O)c1cnn(CCCCOc2ccc(-c3ccn[nH]3)nc2)c1 [Example 15-3]
2 | 1400 nM | 53 nM | O=C(O)Cn1ncc2cc(COc3ccc(-c4ccn[nH]4)nc3)ccc21 [Example 16-1, 2-[5-[[6-(1H-Pyrazol-5-yl)-3-pyridinyl]oxymethyl]-1-indazolyl]acetic Acid]
3 | 180 nM | 1400 nM | CC(C)(C(=O)O)C(=O)N1CCc2ccc(COc3ccc(-c4ccn[nH]4)nc3)cc2C1 [Example 17-1, 2,2-Dimethyl-3-oxo-3-[7-[[6-(1H-pyrazol-5-yl)-3-pyridinyl]oxymethyl]-3,4-dihydro-1H-isoquinolin-2-yl]propanoic Acid]
4 | 460 nM | 13 nM | O=C(O)c1cccc(-c2cccc(COc3ccc(-c4ccn[nH]4)nc3)c2)n1 [Example 18-1, 6-[3-[[6-(1H-Pyrazol-5-yl)-3-pyridinyl]oxymethyl]phenyl]-2-pyridinecarboxylic Acid]
5 | 230 nM | 12 nM | O=C(O)c1ccc(-c2cccc(COc3ccc(-c4ccn[nH]4)nc3)c2)nc1 [Example 18-2]
6 | 510 nM | 24 nM | O=C(O)c1cncc(-c2cccc(COc3ccc(-c4ccn[nH]4)nc3)c2)n1 [Example 18-3]
7 | 490 nM | 22 nM | O=C(O)c1cnc(-c2cccc(COc3ccc(-c4ccn[nH]4)nc3)c2)cn1 [Example 18-4]
8 | 5200 nM | 32 nM | CC(C)(Oc1cccc(COc2ccc(-c3ccn[nH]3)nc2)c1)C(=O)O [Example 18-5]
9 | 6100 nM | 310 nM | O=C(O)c1cccc(OCCOc2ccc(-c3ccn[nH]3)nc2)c1 [Example 18-6]
10 | 22 nM | 1700 nM | CS(=O)(=O)NCCCCCCOc1ccc(-c2ccn[nH]2)nc1 [Example 19-1, N-[6-[[6-(1H-Pyrazol-5-yl)-3-pyridinyl]oxy]hexyl]methanesulfonamide]
11 | 1100 nM | 28000 nM | CS(=O)(=O)c1cc(COc2ccc(-c3ccn[nH]3)nc2)ccc1O [Example 20-1, 2-Methylsulfonyl-4-[[6-(1H-pyrazol-5-yl)-3-pyridinyl]oxymethyl]phenol]
12 | 69 nM | 210 nM | CS(=O)(=O)c1cc(O)cc(COc2ccc(-c3ccn[nH]3)nc2)c1 [Example 20-2]
13 | 15000 nM | 43 nM | O=C(O)Cc1ccc(COc2ccc(-c3ccn[nH]3)nc2)cc1 [Example 21-1, 2-[4-[[6-(1H-Pyrazol-5-yl)-3-pyridinyl]oxymethyl]phenyl]acetic Acid]
14 | > 50000 nM | 3800 nM | O=C(O)Cc1ccccc1COc1ccc(-c2ccn[nH]2)nc1 [Example 21-2]
15 | 21000 nM | 16 nM | O=C(O)C1(c2cccc(COc3ccc(-c4ccn[nH]4)nc3)c2)CC1 [Example 21-3]
16 | 1500 nM | 25 nM | CC(C)(CCNS(=O)(=O)c1cccc(COc2ccc(-c3ccn[nH]3)nc2)c1)C(=O)O [Example 21-4]
17 | 430 nM | 29 nM | CN(CCC(C)(C)C(=O)O)S(=O)(=O)c1cccc(COc2ccc(-c3ccn[nH]3)nc2)c1 [Example 21-5]
18 | 140 nM | 15 nM | O=C(O)/C=C/c1cccc(COc2ccc(-c3ccn[nH]3)nc2)c1 [Example 22-1, (2E)-3-[3-[[[6-(1H-Pyrazol-5-yl)pyridin-3-yl]oxy]methyl]phenyl]-2-propenoic Acid]
19 | 1400 nM | 42 nM | O=C(O)c1cccc(COc2ccc(-c3ccn[nH]3)nc2)c1 [Example 22-2]
20 | 17000 nM | 16 nM | O=C(O)Cc1cccc(COc2ccc(-c3ccn[nH]3)nc2)c1 [Example 22-3]
21 | 1400 nM | 20 nM | O=C(O)CCc1cccc(COc2ccc(-c3ccn[nH]3)nc2)c1 [Example 22-4]
22 | 3100 nM | 120 nM | O=C(O)c1cnc(-c2cccc(COc3ccc(-c4ccn[nH]4)nc3)c2)nc1 [Example 22-5, 2-[3-[[6-(1H-Pyrazol-5-yl)-3-pyridinyl]oxymethyl]phenyl]-5-pyrimidinecarboxylic Acid]
23 | 3100 nM | 110 nM | O=C(O)c1ccnc(-c2cccc(COc3ccc(-c4ccn[nH]4)nc3)c2)n1 [Example 22-6]
24 | 1200 nM | 38 nM | O=C(O)c1ncc(-c2cccc(COc3ccc(-c4ccn[nH]4)nc3)c2)cn1 [Example 22-7]
25 | 1500 nM | 68 nM | O=C(O)C1CCN(S(=O)(=O)c2cccc(COc3ccc(-c4ccn[nH]4)nc3)c2)CC1 [Example 22-8]
26 | 2000 nM | 24 nM | O=C(O)C1CCN(S(=O)(=O)c2cccc(COc3ccc(-c4ccn[nH]4)nc3)c2)C1 (stereo not drawn) [Example 22-10]
27 | 2000 nM | 53 nM | O=C(O)C1CN(S(=O)(=O)c2cccc(COc3ccc(-c4ccn[nH]4)nc3)c2)CCO1 (stereo not drawn) [Example 22-12]
28 | 11000 nM | 380 nM | CC(C)(Oc1cc(COc2ccc(-c3ccn[nH]3)nc2)ccn1)C(=O)O [Example 22-13, 2-Methyl-2-[[4-[[6-(1H-pyrazol-5-yl)-3-pyridinyl]oxymethyl]-2-pyridinyl]oxy]propanoic Acid]

More lines, now with the values behind:

Row | SMILES | IC50 (human CYP4F2) | IC50 (human CYP4A11)
29 | O=C(O)Cn1cc(CCCCOc2ccc(-c3ccn[nH]3)nc2)cn1 [Example 8-12] | 5000 nM | 100 nM
30 | CC(C)(C(=O)O)n1cc(CCCCOc2ccc(-c3ccn[nH]3)nc2)cn1 [Example 8-13] | 8300 nM | 120 nM
31 | CC(C)(C(=O)O)n1ccc(CCCCOc2ccc(-c3ccn[nH]3)nc2)n1 [Example 8-14] | 11000 nM | 68 nM
32 | O=C(O)Cn1ccc(CCCCOc2ccc(-c3ccn[nH]3)nc2)cc1=O [Example 8-15] | 1400 nM | 530 nM
33 | O=C(O)Cc1cccc(COc2ccc(-c3ccn[nH]3)nc2)n1 [Example 8-16] | 680 nM | 750 nM
34 | O=C(O)C12CC(COc3ccc(-c4ccn[nH]4)nc3)(C1)C2 [Example 8-17] | 22000 nM | 520 nM
35 | O=C(O)C12CCC(COc3ccc(-c4ccn[nH]4)nc3)(CC1)CC2 [Example 8-18] | 16000 nM | 52 nM
36 | CC(C)(OCCCCOCCCCOc1ccc(-c2ccn[nH]2)nc1)C(=O)O [Example 9-2] | 1100 nM | 1800 nM
37 | CC(C)(OCCCOCCCCOc1ccc(-c2ccn[nH]2)nc1)C(=O)O [Example 9-3] | 490 nM | 1400 nM
38 | O=C(O)CCCCOc1ccc(-c2ccn[nH]2)nc1 [Example 10-1, 5-[[6-(1H-Pyrazol-5-yl)-3-pyridinyl]oxy]pentanoic Acid] | 19000 nM | 560 nM
39 | O=C(O)COc1cccc(COc2ccc(-c3ccn[nH]3)nc2)c1 [Example 10-2, 2-[3-[[6-(1H-Pyrazol-5-yl)-3-pyridinyl]oxymethyl]phenoxy]acetic Acid] | 1100 nM | 23 nM
40 | Oc1cc(CCCOc2ccc(-c3ccn[nH]3)nc2)cc(F)c1F [Example 11-1, 2,3-Difluoro-5-[3-[[6-(1H-pyrazol-5-yl)-3-pyridinyl]oxy]propyl]phenol] | 5.1 nM | 140 nM
41 | Oc1cccc(CCCOc2ccc(-c3ccn[nH]3)nc2)c1 [Example 11-2] | 19 nM | 520 nM
42 | Oc1cc(CCCOc2ccc(-c3ccn[nH]3)nc2)ccc1F [Example 11-3] | 7.3 nM | 270 nM
43 | NS(=O)(=O)CCCCCOc1ccc(-c2ccn[nH]2)nc1 [Example 11-4, 5-[[6-(1H-Pyrazol-5-yl)-3-pyridinyl]oxy]-1-pentanesulfonamide] | 1300 nM | 4500 nM
44 | Cc1ccc(COc2ccc(-c3ccn[nH]3)nc2)cc1O [Example 12-1, 2-Methyl-5-[[6-(1H-pyrazol-5-yl)-3-pyridinyl]oxymethyl]phenol] | 6.2 nM | 260 nM
45 | Oc1cc(COc2ccc(-c3ccn[nH]3)nc2)ccc1F [Example 12-2] | 11 nM | 310 nM
46 | Oc1cc(F)cc(COc2ccc(-c3ccn[nH]3)nc2)c1 [Example 12-3] | 25 nM | 290 nM
47 | Oc1cccc(COc2ccc(-c3ccn[nH]3)nc2)c1 [Example 13-1, 3-[[6-(1H-Pyrazol-5-yl)-3-pyridinyl]oxymethyl]phenol] | 34 nM | 610 nM
48 | Oc1ccccc1CCOc1ccc(-c2ccn[nH]2)nc1 [Example 13-2] | 13 nM | 400 nM
49 | Oc1cccc(CCOc2ccc(-c3ccn[nH]3)nc2)c1 [Example 13-3] | 19 nM | 300 nM
50 | O=C(O)CCS(=O)(=O)c1cccc(COc2ccc(-c3ccn[nH]3)nc2)c1 [Example 14-1, 3-[3-[[6-(1H-Pyrazol-5-yl)-3-pyridinyl]oxymethyl]phenyl]sulfonylpropanoic Acid] | 2200 nM | 30 nM
51 | O=C(O)c1cnn(CCCOc2ccc(-c3ccn[nH]3)nc2)c1 [Example 15-2, 1-[3-[[6-(1H-Pyrazol-5-yl)-3-pyridinyl]oxy]propyl]-4-pyrazolecarboxylic Acid] | 25000 nM | 690 nM
